Data: ChEMBL document CHEMBL1157637, “Potent DNA-directed alkylating agents: Synthesis and biological activity of phenyl N-mustard-quinoline conjugates having a urea or hydrazinecarboxamide linker” (Bioorg Med Chem, 2010)
Activity calls are given as the source filed them. No cut-off for these calls is given here.

Assays:
CCRF-CEM [1] = test: Selectivity ratio of IC50 for taxol-resistant human CCRF-CEM cells to IC50 for human CCRF-CEM cells; format: functional
CCRF-CEM [2] = test: Selectivity ratio of IC50 for vinblastine-resistant human CCRF-CEM cells to IC50 for human CCRF-CEM cells; format: functional
CCRF-CEM [3] = test: Cytotoxicity against human CCRF-CEM cells after 72 hrs by XTT assay; format: functional, cell-based
CCRF-CEM [4] = test: Cytotoxicity against taxol-resistant human CCRF-CEM cells after 72 hrs by XTT assay; format: functional, cell-based
CCRF-CEM [5] = test: Cytotoxicity against vinblastine-resistant human CCRF-CEM cells after 72 hrs by XTT assay; format: functional, cell-based
MX1 = test: Cytotoxicity against human MX1 cells after 72 hrs by SRB assay; format: functional, cell-based; settings: MX1, 72 h
HCT-116 = test: Cytotoxicity against human HCT116 cells after 72 hrs by SRB assay; format: functional, cell-based; settings: HCT-116, 72 h
[6] = Cytotoxicity against human H1299 cells after 72 hrs by alamar blue assay; format: functional, cell-based; settings: NCI-H1299, 72 h
[7] = Cytotoxicity against human CL1-5 cells after 72 hrs by alamar blue assay; format: functional, cell-based; settings: CL1-5, 72 h
[8] = Cytotoxicity against human CL1-0 cells after 72 hrs by alamar blue assay; format: functional, cell-based; settings: CL1-0, 72 h
PC-3 = test: Cytotoxicity against human PC3 cells after 72 hrs by alamar blue assay; format: functional, cell-based; settings: PC-3, 72 h
MCF7 = test: Cytotoxicity against human MCF7 cells after 72 hrs by alamar blue assay; format: functional, cell-based; settings: MCF7, 72 h
Nucleic Acid = test: Binding affinity to pEGFP-N1 DNA assessed as formation of interstrand cross-links with DNA by alkaline gel shift assay; format: nucleic-acid assay

Compound	Ratio IC50 (CCRF-CEM [1])	Ratio IC50 (CCRF-CEM [2])	IC50 (CCRF-CEM [3]) [µM]	IC50 (CCRF-CEM [4]) [µM]	IC50 (CCRF-CEM [5]) [µM]	IC50 (MX1) [µM]	IC50 (HCT-116) [µM]	IC50 [6] [µM]	IC50 [7] [µM]	IC50 [8] [µM]	IC50 (PC-3) [µM]	IC50 (MCF7) [µM]	Activity (Nucleic Acid)
CC[C@]1(O)C[C@@H]2CN(CCc3c([nH]c4ccccc34)[C@@](C(=O)OC)(c3cc4c(cc3OC)N(C)[C@H]3[C@@](O)(C(=O)OC)[C@H](OC(C)=O)[C@]5(CC)C=CCN6CC[C@]43[C@@H]65)C2)C1 [VINBLASTINE]	106.2	679.5	–	–	–	–	–	–	–	–	–	–	–
Cc1cc(NC(=O)Nc2ccc(N(CCCl)CCCl)cc2)c2cc(N3CCCC3)ccc2n1	1.87	1.43	9.02	16.9	12.9	16.6	13.4	–	–	–	–	–	–
CC(=O)O[C@H]1C(=O)[C@@]2(C)[C@H]([C@H](OC(=O)c3ccccc3)[C@]3(O)C[C@H](OC(=O)[C@H](O)[C@@H](NC(=O)c4ccccc4)c4ccccc4)C(C)=C1C3(C)C)[C@]1(OC(C)=O)CO[C@@H]1C[C@@H]2O [PACLITAXEL]	330	980	–	–	–	–	–	–	–	–	–	–	–
O=C(Nc1ccc(N(CCCl)CCCl)cc1)Nc1cc(-c2ccccc2)nc2ccccc12	0.87	0.99	1.69	1.46	1.66	3.47	7.79	–	–	–	–	–	–
O=C(NNc1ccc(N(CCCl)CCCl)cc1)Nc1cc(-c2ccccc2F)nc2ccc(N3CCCC3)cc12	1.72	2.05	0.152	0.261	0.312	2.26	0.192	0.604	0.511	0.694	0.954	1	–
COc1cccc(-c2cc(NC(=O)Nc3ccc(N(CCCl)CCCl)cc3)c3cc(N4CCCC4)ccc3n2)c1	0.02	7.58	102	2.23	774	265	168	3.81	9.49	7.09	11.1	6.93	–
O=C(Nc1ccc(N(CCCl)CCCl)cc1)Nc1cc(-c2ccccc2F)nc2cc3c(cc12)OCO3	0.84	0.76	3.09	2.61	2.35	13.1	25.4	–	–	–	–	–	–
COc1ccc2nc(C)cc(NC(=O)Nc3ccc(N(CCCl)CCCl)cc3)c2c1	1	1.5	0.309	0.313	0.458	0.645	0.83	1.31	5.33	5.58	3.15	5.19	–
O=C(NNc1ccc(N(CCCl)CCCl)cc1)Nc1cc(-c2ccccc2F)nc2cc3c(cc12)OCO3	2.09	2.23	1.42	2.98	3.17	42.6	6.48	0.491	2.65	3.47	4.77	1.82	–
Cc1cc(NC(=O)Nc2ccc(N(CCCl)CCCl)cc2)c2cc3c(cc2n1)OCO3	2.2	2.3	0.279	0.605	0.652	0.584	0.402	5.44	7.27	6.23	5.96	4.91	–
COc1cccc(-c2cc(NC(=O)NNc3ccc(N(CCCl)CCCl)cc3)c3cc(N4CCCC4)ccc3n2)c1	1.6	2.35	0.354	0.568	0.833	1.32	0.643	0.945	5.87	2.92	3.34	5.46	–
COc1cccc(-c2cc(NC(=O)NNc3ccc(N(CCCl)CCCl)cc3)c3cc4c(cc3n2)OCO4)c1	3.51	5.43	0.209	0.734	1.13	0.749	1.37	2.05	4.85	2.87	2.98	3.35	–
COc1cccc(-c2cc(NC(=O)Nc3ccc(N(CCCl)CCCl)cc3)c3cc4c(cc3n2)OCO4)c1	0.7	0.79	2.82	1.96	2.22	20.6	8.87	–	–	–	–	–	–
COc1cccc(-c2cc(NC(=O)Nc3ccc(N(CCCl)CCCl)cc3)c3cc(Cl)ccc3n2)c1	0.59	0.55	1.88	1.1	1.03	2.25	4.88	–	–	–	–	–	–
O=C(Nc1ccc(N(CCCl)CCCl)cc1)Nc1cc(-c2ccccc2)nc2cc3c(cc12)OCO3	0.99	0.82	2.25	2.23	1.84	7.41	9.92	–	–	–	–	–	–
COc1cccc(-c2cc(NC(=O)NNc3ccc(N(CCCl)CCCl)cc3)c3cc(Cl)ccc3n2)c1	3.08	2.91	0.732	2.25	2.13	14.6	13.9	–	–	–	–	–	–
Cc1cc(NC(=O)Nc2ccc(N(CCCl)CCCl)cc2)c2cc(N(C)C)ccc2n1	2.9	2.3	0.107	0.308	0.242	0.184	0.3	0.714	2.52	1.73	2	2.13	–
O=C(Nc1ccc(N(CCCl)CCCl)cc1)Nc1cc(-c2ccccc2F)nc2ccc(N3CCCC3)cc12	5.22	1.62	7.65	39.9	12.4	115	44.2	–	–	–	–	–	–
O=C(NNc1ccc(N(CCCl)CCCl)cc1)Nc1cc(-c2ccccc2)nc2ccccc12	1.57	2.11	0.578	0.908	1.22	1.78	1.26	4.38	3.01	4.07	10.5	6.24	Active
O=C(NNc1ccc(N(CCCl)CCCl)cc1)Nc1cc(-c2ccccc2)nc2cc3c(cc12)OCO3	2.22	1.92	0.258	0.574	0.495	1.02	2.02	–	–	–	–	–	–
